Experiments:
BV-2 [1] = experiment: Antiinflammatory activity in mouse BV2 cells assessed as inhibition of LPS-induced NO-production preincubated for 1 hr followed by LPS stimulation and measured after 24 hrs by microplate reader based colorimetric assay; type: functional, cell-based; settings: for inhibition: time 25.0 hrs
BV-2 [2] = experiment: Antiinflammatory activity in mouse BV2 cells assessed as inhibition of LPS-induced NO-production by measuring NO level at 10 uM preincubated for 1 hr followed by LPS stimulation and measured after 24 hrs by microplate reader based colorimetric assay (reference value: 26.6 +/- 8.1 uM); type: functional
BV-2 [3] = experiment: Cytotoxicity against mouse BV2 cells assessed as cell viability at 10 uM after 24 hrs by MTT assay; type: cell-based; settings: bv-2, 24 h

IC50 (BV-2 [1]) [µM] | Compound | NO level (BV-2 [2]) [µM] | Activity (BV-2 [3]) | inhibition (BV-2 [1])
4.5 | C/C=C/[C@H]1O[C@@H]2C(=C[C@H]1O)C(=O)O[C@@H]2C | 2.2 | Non-Toxic | –
– | CCC/C=C/C1=C(CO)[C@@H](O)[C@@H]2O[C@@H]2[C@@H]1O | 24.3 | Non-Toxic | –
– | CC(O)C/C=C/[C@H](O)[C@H](O)/C=C/c1cccc(O)c1CO (some centres undefined) | 26.6 | Non-Toxic | –
– | C/C=C/[C@@H]1O[C@@H]2[C@@H](C)OC(=O)[C@]2(O)C[C@H]1O | 25.5 | Non-Toxic | –
– | C[C@@H]1OC(=O)c2c(O)ccc(O)c2[C@@H]1O | 28.9 | Non-Toxic | –
1.1 | C/C=C/[C@@H]1O[C@H]2C(=C[C@H]1O)C(=O)O[C@@H]2C | 1.9 | Non-Toxic | –
3 | COc1cc(/C=C/C(=O)CC(=O)/C=C/c2ccc(O)c(OC)c2)ccc1O [CURCUMIN] | 5.5 | – | –
5 | COc1cc(O)c2c(c1)[C@H](O)[C@@]1(CO)O[C@@]1(CO)C2=O | 10.5 | Non-Toxic | Dose-Dependent Effect
3.2 | COc1cc(O)c2c(c1)[C@H](O)[C@]13CO[C@H](O)[C@]1(O3)C2=O | 2.6 | Non-Toxic | Dose-Dependent Effect

Source: ChEMBL document CHEMBL4837236, “Polyketides with Anti-neuroinflammatory Activity from Theissenia cinerea” (J Nat Prod, 2021)
